Earlier results as cited in patent US20190320896A1, “STROKE, CONCUSSION, AND COGNITIVE DYSFUNCTION DIAGNOSTIC METHOD AND DEVICE” (priority 2018, published 2019).

Assays:
[1] = human, in vivo
[2] = upon entering the circulation after bolus injection into a peripheral vein
[3] = after administration; metabolized by the kidneys

SMILES | GLOS also affecting the aqueous chamber, cases [1] | GLOS in both chambers, patients [1] | GLOS in the aqueous chamber alone, patients [1] | GLOS in the vitreous chamber alone, patients [1] | GLOS present, always involving the vitreous chamber, patients [1] | dye molecules bound to plasma proteins [2] | time to elimination through the urine [3]
O=C([O-])CN(CCN(CC(=O)[O-])CC(=O)[O-])CCN(CC(=O)[O-])CC(=O)[O-].[Gd+3] [gadolinium, Gadolinium-DTPA] | 6 % of cases | 27 % of patients | 67 % of patients | 6 % of patients | 75 % patients |  | 
O=C1OC2(c3ccc(O)cc3Oc3cc(O)ccc32)c2ccccc21 [sodium fluorescein] |  |  |  |  |  | approximately 80% | 24 to 36 h
